Molecular target: T1, bacterial NAD synthetase enzyme (Bacillus subtilis, UniProt P08164)
T1 sequence (P08164 2-272 limits assumed): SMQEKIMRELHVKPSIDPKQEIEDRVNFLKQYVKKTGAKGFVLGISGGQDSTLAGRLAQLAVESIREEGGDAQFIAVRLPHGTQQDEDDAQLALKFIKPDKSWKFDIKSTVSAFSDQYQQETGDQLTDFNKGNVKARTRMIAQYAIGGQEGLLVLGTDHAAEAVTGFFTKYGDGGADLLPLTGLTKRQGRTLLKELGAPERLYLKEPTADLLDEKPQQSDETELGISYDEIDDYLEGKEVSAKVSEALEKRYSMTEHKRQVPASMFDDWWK
Assay: biochemical
Format: biochemical

[1] = compound at 0.2 mM (Table 312A)
[2] = compound at 0.2 mM (Table 312B)

SMILES: COC(=O)c1cc2cc(OCc3ccccc3)ccc2n1CCCCCCCCCOC(=O)c1ccc[n+](C)c1 [Compound 978]
- % Inhibition (compound at 0.1 mM (Table 314)): 80.31%

SMILES: O=[N+]([O-])c1cc([N+](=O)[O-])c2[nH]c(CCCC[n+]3ccc4ccccc4c3)cc2c1 [Compound 523]
- % Inhibition [1]: 18.12%

SMILES: Fc1ccc2[nH]c(CCCCCCC[n+]3cccc4ccccc43)cc2c1 [Compound 454]
- % Inhibition [1]: 7.95%

SMILES: c1ccc(-c2ccc3[nH]c(CCCCCCC[n+]4ccc5ccccc5c4)cc3c2)cc1 [Compound 544]
- % Inhibition [1]: 19.66%

SMILES: CC(=O)c1ccc2[nH]c(CCCCCCCOC(=O)c3ccc([N+](C)(C)C)cc3)cc2c1 [Compound 893]
- % Inhibition (compound at 0.25 mM): 13.8%

SMILES: CC(C)c1ccc2[nH]c(CCCCOC(=O)c3ccc[n+](C)c3)cc2c1 [Compound 919]
- % Inhibition (compound at 0.25 mM): 90.2%

SMILES: C[n+]1ccc(C(=O)OCCCCc2cc3ccc(C(F)(F)F)cc3[nH]2)cc1 [Compound 898]
- % Inhibition (compound at 0.25 mM): 51.8%

SMILES: O=C(c1ccccc1)c1ccc2[nH]c(CCCCCCC[n+]3ccc4ccccc4c3)cc2c1 [Compound 574]
- % Inhibition [1]: 11.95%

SMILES: Fc1cc(F)c2[nH]c(CCC[n+]3ccc4ccccc4c3)cc2c1 [Compound 516]
- % Inhibition [1]: 29.95%

SMILES: COC(=O)c1ccc2[nH]c(CCC[n+]3ccc4ccccc4c3)cc2c1 [Compound 594]
- % Inhibition [1]: 2.77%

SMILES: O=C(c1ccccc1)c1ccc2[nH]c(CCC[n+]3ccccc3)cc2c1 [Compound 354]
- % Inhibition [1]: 2.96%

SMILES: C[N+](C)(C)c1ccc(CC(=O)OCCCCCCCCOc2cccc([N+](=O)[O-])c2)cc1 [Compound 1085]
- IC50: 138 µM
- inhibition at 200 µM: 87%

SMILES: O=[N+]([O-])c1cc([N+](=O)[O-])c2[nH]c(CCC[n+]3cccc4ccccc43)cc2c1 [Compound 414]
- % Inhibition [1]: 6.91%

SMILES: COc1cccc(OCCCCCCCCOC(=O)c2ccc[n+](C)c2)c1 [compound 1057]
- % Inhibition [2]: 59%

SMILES: COc1ccc2c(ccn2CCCCCCOC(=O)c2ccc[n+](C)c2)c1 [Compound 762]
- % Inhibition [1]: 40.05%

SMILES: CC(=O)c1ccc2[nH]c(CCCCCCCCOC(=O)c3ccc[n+](C)c3)cc2c1 [Compound 924]
- IC50: 25 µM
- inhibition at 100 µM: 97.7%

SMILES: C[N+](C)(C)c1cccc(C(=O)OCCCCCCCc2cc3cc(Oc4ccccc4)ccc3[nH]2)c1 [Compound 872]
- IC50: 50 µM
- inhibition at 100 µM: 98.3%

SMILES: C[n+]1cccc(CC(=O)OCCCCCCCCc2cc3cc(C(=O)c4ccccc4)ccc3[nH]2)c1 [Compound 942]
- IC50: 75 µM
- inhibition at 100 µM: 97.8%

SMILES: O=C(O)c1ccc2[nH]c(CCC[n+]3ccccc3)cc2c1 [Compound 384]
- % Inhibition [1]: 4.10%

SMILES: COc1ccc2[nH]c(CCCCCCC[n+]3ccc4ccccc4c3)cc2c1 [Compound 592]
- % Inhibition [1]: 18.70%

SMILES: CC(C)c1ccc2[nH]c(CCC[n+]3ccc4ccccc4c3)cc2c1 [Compound 534]
- % Inhibition [1]: 26.99%

SMILES: CC(=O)c1cccc(OCCCCCCCCOC(=O)Cc2ccc([N+](C)(C)C)cc2)c1 [Compound 1089]
- % Inhibition [2]: 56%

SMILES: C[N+](C)(C)c1ccc(C(=O)OCCCCCCCCc2cc3cc(Oc4ccccc4)ccc3[nH]2)cc1 [Compound 888]
- % Inhibition (compound at 0.25 mM): 99.0%

SMILES: O=C(OCCCCCCCCOc1ccc(N2C(=O)c3ccccc3C2=O)cc1)c1cccnc1 [Compound 1017]
- % Inhibition [2]: 23%

SMILES: FC(F)(F)c1ccc2[nH]c(CCCCCCCC[n+]3ccc4ccccc4c3)cc2c1 [Compound 581]
- % Inhibition [1]: 21.66%

SMILES: FC(F)(F)c1ccc2cc(CCCCCCC[n+]3ccccc3)[nH]c2c1 [Compound 292]
- % Inhibition [1]: 44.36%

SMILES: O=C(O)c1ccc2[nH]c(CCCC[n+]3cccc4ccccc43)cc2c1 [Compound 493]
- % Inhibition [1]: 9.12%

SMILES: c1ccc(-c2ccc3[nH]c(CCCCCC[n+]4cccc5ccccc54)cc3c2)cc1 [Compound 435]
- % Inhibition [1]: 17.24%

SMILES: COC(=O)c1cc2cc(OCc3ccccc3)ccc2n1CCCCCCCCOC(=O)Cc1ccc(N(C)C)cc1 [Compound 965]
- % Inhibition (compound at 0.1 mM (Table 314)): 8.48%

SMILES: O=C(OCCCCCCCCOc1ccc([N+](=O)[O-])cc1)c1cccnc1 [Compound 995]
- % Inhibition [2]: 27%

From patent US6727237B2, “Inhibitors of bacterial NAD synthetase” (priority 1998, dated 2004)
